The source of these data is US10772934B2 (Longevity Biotech, Inc., priority 2010, dated 2020).

No end group written: not given here.

In data set [1] the target is T1, VIPR2 (Homo sapiens, UniProt P41587).
T1 construct: host or cells: cAMP Hunter cell lines (CHO-K1 is named only in the prophetic assay)
T1 sequence (P41587 24-438): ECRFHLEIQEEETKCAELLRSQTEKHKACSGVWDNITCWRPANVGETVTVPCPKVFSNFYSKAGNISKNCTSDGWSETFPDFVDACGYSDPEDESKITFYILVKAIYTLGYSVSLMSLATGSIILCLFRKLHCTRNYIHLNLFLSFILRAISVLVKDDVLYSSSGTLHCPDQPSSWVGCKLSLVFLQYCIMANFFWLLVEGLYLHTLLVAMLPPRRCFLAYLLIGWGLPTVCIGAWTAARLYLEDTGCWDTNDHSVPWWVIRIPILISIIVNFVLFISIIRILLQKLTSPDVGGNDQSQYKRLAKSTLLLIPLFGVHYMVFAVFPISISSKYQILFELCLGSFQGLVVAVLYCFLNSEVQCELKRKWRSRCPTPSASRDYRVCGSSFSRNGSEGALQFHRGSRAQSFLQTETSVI
The data set can be described thus: cAMP Hunter cell line functional assay, agonist mode (DiscoveRx HitHunter cAMP XS+). In kind it is cell-based. The note with it: for Mean RLU: Cell Line VIPR2, Mode Agonist, Readout cAMP. The protocol: (§1) Once it was established that the cells were healthy and growing normally, cells were passaged from flasks using cell dissociation reagent buffer and seeded into white walled clear bottom 384-well microplates for compound profiling. For profiling, cells were seeded at a density of 10,000 cells per well in a total volume of 20 μL and were allowed to adhere and recover overnight prior to compound addition. cAMP modulation was determined using the DiscoveRx HitHunter cAMP XS+ assay.
(§2) For profiling compound in agonist mode, the cells were incubated in the presence of compound at 37° C. for 30 minutes. […] After appropriate compound incubation, assay signal was generated through incubation with DiscoverX lysis cocktail according to the manufacturers standard protocol. Dose curves were plotted using GraphPad Prism or Activity Base. Percentage activity is calculated using the following formula: % Activity=100%×(mean RLU of test sample−mean RLU of vehicle control)/(mean RLU of MAX control−mean RLU of vehicle control).

Data set [2] concerns the target T2, VIPR1 (Homo sapiens, UniProt P32241).
T2 sequence (P32241 31-457): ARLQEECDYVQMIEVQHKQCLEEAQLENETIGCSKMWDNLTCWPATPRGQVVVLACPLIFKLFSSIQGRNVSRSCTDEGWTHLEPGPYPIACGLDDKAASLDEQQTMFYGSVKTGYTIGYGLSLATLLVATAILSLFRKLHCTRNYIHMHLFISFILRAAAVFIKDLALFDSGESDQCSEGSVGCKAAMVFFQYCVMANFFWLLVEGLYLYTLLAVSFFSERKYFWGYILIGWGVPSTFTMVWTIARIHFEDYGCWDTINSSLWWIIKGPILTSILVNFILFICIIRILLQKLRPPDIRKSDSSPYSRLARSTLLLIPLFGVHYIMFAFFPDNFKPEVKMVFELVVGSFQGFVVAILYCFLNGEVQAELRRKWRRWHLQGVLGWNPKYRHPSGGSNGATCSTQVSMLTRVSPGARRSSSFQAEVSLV
The description is as above. In kind it is cell-based. The note with it: for Mean RLU: Cell Line VIPR1, Mode Agonist, Readout cAMP. The protocol: as §1, §2

For data set [3], the target named is T3, Glucagon receptor (Rattus norvegicus, UniProt P30082).
T3 construct: from tissue; host or cells: rat liver membranes
T3 sequence (P30082 27-485): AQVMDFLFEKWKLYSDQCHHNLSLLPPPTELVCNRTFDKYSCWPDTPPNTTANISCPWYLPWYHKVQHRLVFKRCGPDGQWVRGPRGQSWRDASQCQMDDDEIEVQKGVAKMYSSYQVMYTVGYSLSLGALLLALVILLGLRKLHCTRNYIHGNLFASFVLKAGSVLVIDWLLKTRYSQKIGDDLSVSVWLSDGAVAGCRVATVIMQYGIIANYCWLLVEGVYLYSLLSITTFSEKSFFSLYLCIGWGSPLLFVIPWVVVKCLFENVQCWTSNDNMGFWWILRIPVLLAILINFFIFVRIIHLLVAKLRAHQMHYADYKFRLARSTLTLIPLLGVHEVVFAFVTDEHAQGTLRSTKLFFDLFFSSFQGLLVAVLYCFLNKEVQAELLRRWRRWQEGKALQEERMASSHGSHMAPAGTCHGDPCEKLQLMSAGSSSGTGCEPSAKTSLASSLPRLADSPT
The note with it: cited from earlier work.

Data set [4] deals with adrenomedullin receptors (Homo sapiens, UniProt Q16602). The note with it: cited from earlier work.
Chain of adrenomedullin receptors (Q16602 23-461): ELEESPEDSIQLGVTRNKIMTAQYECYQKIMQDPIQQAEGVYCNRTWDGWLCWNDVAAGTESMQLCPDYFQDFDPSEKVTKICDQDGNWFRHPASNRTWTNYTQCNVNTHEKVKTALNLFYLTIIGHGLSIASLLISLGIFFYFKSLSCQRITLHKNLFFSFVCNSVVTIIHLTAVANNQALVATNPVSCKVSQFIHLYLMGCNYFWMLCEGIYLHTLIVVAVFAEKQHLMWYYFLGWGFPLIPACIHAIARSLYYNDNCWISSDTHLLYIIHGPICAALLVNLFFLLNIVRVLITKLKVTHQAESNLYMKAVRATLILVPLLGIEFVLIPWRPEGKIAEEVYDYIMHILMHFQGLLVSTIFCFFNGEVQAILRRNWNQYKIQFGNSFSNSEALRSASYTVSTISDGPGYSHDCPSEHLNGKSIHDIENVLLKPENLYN
Data set [5] relates to calcitonin (CT) receptor. The note with it: cited from earlier work.
Data set [6] concerns the target calcitonin-gene related peptide (CGRP) receptors (Homo sapiens, UniProt O60894+Q16602). The note with it: cited from earlier work.
For data set [7], the target named is glucagon receptors (Homo sapiens, UniProt P47871). The note with it: cited from earlier work.
Chain of glucagon receptors (P47871 26-477): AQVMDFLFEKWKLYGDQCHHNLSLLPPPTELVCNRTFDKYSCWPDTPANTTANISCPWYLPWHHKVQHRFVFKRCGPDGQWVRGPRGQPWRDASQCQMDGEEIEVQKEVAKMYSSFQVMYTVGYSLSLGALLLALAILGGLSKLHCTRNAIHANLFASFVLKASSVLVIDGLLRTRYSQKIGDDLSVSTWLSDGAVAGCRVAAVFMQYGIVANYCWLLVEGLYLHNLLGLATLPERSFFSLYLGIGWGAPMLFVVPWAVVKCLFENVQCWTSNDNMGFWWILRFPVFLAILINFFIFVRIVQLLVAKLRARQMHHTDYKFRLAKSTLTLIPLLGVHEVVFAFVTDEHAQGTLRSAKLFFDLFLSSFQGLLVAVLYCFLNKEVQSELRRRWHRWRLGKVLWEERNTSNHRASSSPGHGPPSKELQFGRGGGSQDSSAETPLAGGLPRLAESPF
Data set [8] deals with T4, GRF receptors (Homo sapiens, UniProt Q02643).
T4 sequence (Q02643 23-423): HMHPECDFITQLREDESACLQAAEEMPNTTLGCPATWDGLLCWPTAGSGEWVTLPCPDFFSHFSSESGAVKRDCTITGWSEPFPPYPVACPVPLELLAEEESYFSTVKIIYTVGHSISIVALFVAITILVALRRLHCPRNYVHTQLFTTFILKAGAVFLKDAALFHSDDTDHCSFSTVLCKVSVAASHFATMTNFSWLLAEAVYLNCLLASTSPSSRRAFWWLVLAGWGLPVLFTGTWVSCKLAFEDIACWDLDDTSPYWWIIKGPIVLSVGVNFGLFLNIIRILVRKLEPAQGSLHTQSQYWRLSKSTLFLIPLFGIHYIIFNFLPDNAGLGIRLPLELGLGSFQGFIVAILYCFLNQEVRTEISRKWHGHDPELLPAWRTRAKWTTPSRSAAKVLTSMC
The note with it: cited from earlier work.

Data set [9] concerns the target secretin receptors (Homo sapiens, UniProt P47872). The note with it: cited from earlier work.
The subject of data set [10] is vasoactive intestinal peptide (VIP). The note with it: read-out: IC50, selective VIP antagonist; cited from earlier work.
Data set [11] addresses G-actin monomers. The note with it: 1:1 ratio; read-out: Kd, sequestration of G-actin monomers; cited from earlier work.
For data set [12] the following is noted: in the blood stream; cited from earlier work.

Chain of secretin receptors (P47872 23-440): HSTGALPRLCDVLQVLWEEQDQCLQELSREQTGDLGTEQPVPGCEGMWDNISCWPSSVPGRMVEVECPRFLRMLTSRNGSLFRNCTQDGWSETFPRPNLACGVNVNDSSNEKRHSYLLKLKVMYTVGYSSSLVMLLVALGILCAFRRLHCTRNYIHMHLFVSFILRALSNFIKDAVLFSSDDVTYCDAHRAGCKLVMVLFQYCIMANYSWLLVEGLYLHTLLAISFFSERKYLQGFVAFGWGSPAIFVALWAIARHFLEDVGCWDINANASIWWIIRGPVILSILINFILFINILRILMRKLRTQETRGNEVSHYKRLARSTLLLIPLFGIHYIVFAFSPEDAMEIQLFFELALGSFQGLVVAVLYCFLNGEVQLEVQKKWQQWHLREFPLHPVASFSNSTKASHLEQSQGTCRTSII
Chain of calcitonin-gene related peptide (CGRP) receptors (Q16602 23-461): as the sequence (Q16602 23-461) above
Chain of calcitonin-gene related peptide (CGRP) receptors (O60894 27-148 partner): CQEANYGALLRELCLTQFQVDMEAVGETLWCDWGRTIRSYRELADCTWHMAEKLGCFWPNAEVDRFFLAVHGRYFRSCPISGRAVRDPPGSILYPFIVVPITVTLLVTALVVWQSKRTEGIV

Consider `CC[C@H](C)[C@H](NC(=O)[C@H]1CCC[C@@H]1NC(=O)[C@H](CC(N)=O)NC(=O)[C@H](CC(C)C)NC(=O)[C@H](Cc1ccc(O)cc1)NC(=O)[C@H]1CNC[C@@H]1NC(=O)[C@H](CCCCN)NC(=O)[C@@H](NC(=O)[C@H]1CCC[C@@H]1NC(=O)[C@H](CC(C)C)NC(=O)[C@H](CCC(N)=O)NC(=O)[C@H](CCCCN)NC(=O)[C@H]1CNC[C@@H]1NC(=O)[C@H](CC(C)C)NC(=O)[C@H](CCCNC(=N)N)NC(=O)[C@H]1CCC[C@@H]1NC(=O)[C@H](Cc1ccc(O)cc1)NC(=O)[C@H](CC(N)=O)NC(=O)[C@H](CC(=O)O)NC(=O)[C@@H](NC(=O)[C@H](Cc1ccccc1)NC(=O)[C@@H](NC(=O)[C@H](C)NC(=O)[C@H](CC(=O)O)NC(=O)[C@H](CO)NC(=O)[C@@H](N)Cc1c[nH]cn1)C(C)C)[C@@H](C)O)C(C)C)C(=O)N[C@@H](CC(C)C)C(=O)NC(CC(N)=O)CC(N)=O` [Compound 8, HSDAVFTDNYXRLZKQLXVKZYLNXILN], for which the “Mean RLU” value came to 8920.0 RLU in data set [1] ([Compound] 1.00E−07 M); 9560.0 RLU in data set [1] ([Compound] 1.00E−08 M); 8560.0 RLU in data set [1] ([Compound] 1.00E−09 M); 7560.0 RLU in [1] ([Compound] 1.00E−10 M); 9280.0 RLU in [1] ([Compound] 1.00E−11 M); 8300.0 RLU in [1] ([Compound] 1.00E−12 M). For the same compound, the “Mean RLU” value in data set [1] ([Compound] 5.00E−07 M) is recorded as 10200.0 RLU; in [1] ([Compound] 5.00E−08 M) it was 9200.0 RLU; in data set [1] ([Compound] 5.00E−09 M), 8560.0 RLU; in data set [1] ([Compound] 5.00E−10 M), 9820.0 RLU; in [2] ([Compound] 1.00E−08 M) it was 13700.0 RLU; in data set [2] ([Compound] 1.00E−09 M) it was 10600.0 RLU. For the same compound, the “Mean RLU” value in data set [2] ([Compound] 1.00E−10 M) turned out to be 9060.0 RLU; in data set [2] ([Compound] 1.00E−11 M), 10500.0 RLU; in data set [2] ([Compound] 1.00E−12 M), 10340.0 RLU; in data set [2] ([Compound] 5.00E−08 M) it was 95460.0 RLU; in data set [2] ([Compound] 5.00E−09 M) it was 13200.0 RLU; in data set [2] ([Compound] 5.00E−10 M), 9820.0 RLU. In addition, in [1] (agonist mode), the “interaction with VIPR2” value is “does not interact substantially”. For the same compound, the “activation of VIPR2” value in data set [1] (agonist mode, FIG. 3) is on record as “not activate”. Besides, the “activation of VIPR1” value in [2] (agonist mode, FIG. 3) was “fully activate”.
For the compound des-His1-{Glu9}-Glucagon (1-29) amide, the “Agonist activity at the glucagon receptor” value in data set [3] is on record as “adenylyl cyclase activation in rat liver membranes); displays no agonist activity”. Also, the “pA2 for inhibition of glucagon-induced adenylyl cyclase activation” value in data set [3] (rat liver membranes) is reported as “(Glucagon receptor antagonist (pA2 = 7.2 for inhibition of glucagon-induced”.
With “Calcitoninreceptor-stimulating peptide-1 (SCNTATCMTHRLVGLLSRSGSMVRSNLLPTKMGFKVFG-NH2; ends and bridges not checked; UniProt Q862B1 81-118, looked up)”, the “Activity at adrenomedullin receptors” value in data set [4] is “Displays no activity at calcitonin-gene related peptide (CGRP) and adrenomedullin”. Besides, the “ED50, stimulation of cAMP formation” value in data set [5] (calcitonin (CT) receptor) is 0.2 nM. For the same compound, the “Potency in stimulating cAMP formation relative to CT” value in data set [5] (greater than CT) was 350 fold. Also, the “Activity at CGRP receptors” value in data set [6] was “Displays no activity at calcitonin-gene related peptide (CGRP) and adrenomedullin”.
As for {D-p-Cl-Phe6,Leu17}-VIP, the “Activity on glucagon receptors” value in data set [7] is reported as “Displays no activity on glucagon, secretin or GRF receptors.)”. Further, the “Activity on GRF receptors” value in data set [8] is listed as “Displays no activity on glucagon, secretin or GRF receptors.)”. In addition, in data set [9], the “Activity on secretin receptors” value is “Displays no activity on glucagon, secretin or GRF receptors.)”. The IC50 in [10] is 126 nM.
Take Thymosin β4: in data set [11], the Kd was 700 to 1000 nM.
Turning to `CC[C@H](C)[C@H](NC(=O)[C@H](CO)NC(=O)[C@H](CC(N)=O)NC(=O)[C@H](CC(C)C)NC(=O)[C@H](Cc1ccc(O)cc1)NC(=O)[C@H](CCCCN)NC(=O)[C@H](CCCCN)NC(=O)[C@@H](NC(=O)[C@H](C)NC(=O)[C@H](CCSC)NC(=O)[C@H](CCC(N)=O)NC(=O)[C@H](CCCCN)NC(=O)[C@H](CCCN=C(N)N)NC(=O)[C@H](CC(C)C)NC(=O)[C@H](CCCN=C(N)N)NC(=O)[C@@H](NC(=O)[C@H](Cc1ccc(O)cc1)NC(=O)[C@H](CC(N)=O)NC(=O)[C@H](CC(=O)O)NC(=O)[C@@H](NC(=O)[C@H](Cc1ccccc1)NC(=O)[C@@H](NC(=O)[C@H](C)NC(=O)[C@H](CC(=O)O)NC(=O)[C@H](CO)NC(=O)[C@@H](N)Cc1c[nH]cn1)C(C)C)[C@@H](C)O)[C@@H](C)O)C(C)C)C(=O)N[C@@H](CC(C)C)C(=O)N[C@@H](CC(N)=O)C(N)=O` [VIP], the half-life result in [12] is reported as “about two”.

By IC50 is commonly meant the midpoint of a concentration-inhibition curve.
